What is called AC50 is the midpoint of the concentration-response curve, whichever way the signal moves. The CC50 is the concentration that lowers cell viability or growth by half.

Activity calls are given as the source filed them. A value given as a limit tells only on which side of the number the result lay.

One test deals with H4. Briefly: Luminescence Cell-Based Dose Response HTS to Identify Activators of 5'UTR Stem-Loop Driven Prion Protein mRNA Translation in H4 Neuroglioblastoma Cells. [Related pubchem assays: 1829 (Project Summary), 1814 (Primary HTS)]. The format is functional. The settings on record: Homo sapiens.
Test [1] is described as follows: Luminescence Cell-Based Dose Response HTS to Identify Activators of Luciferase Translation or Activity in H4 […] Cells. [Related pubchem assays: 1829 (Project Summary), 1814 (Primary HTS)]. Type of test: functional.
Test [2] can be described thus: Luminescence Cell-Based Dose Confirmation HTS to Identify Activators of 5'UTR Stem-Loop Driven Alpha-Synuclein mRNA Translation in H4 Neuroglioblastoma Cells. [Related pubchem assays: 1829 (Project Summary), 1814 (Primary HTS)]. Type of test: functional.
The target in test [3] is T1, Corticotropin-releasing factor receptor 2/Corticotropin-releasing factor-binding protein (Homo sapiens, UniProt P24387+Q13324).
T1 sequence (Q13324 whole entry): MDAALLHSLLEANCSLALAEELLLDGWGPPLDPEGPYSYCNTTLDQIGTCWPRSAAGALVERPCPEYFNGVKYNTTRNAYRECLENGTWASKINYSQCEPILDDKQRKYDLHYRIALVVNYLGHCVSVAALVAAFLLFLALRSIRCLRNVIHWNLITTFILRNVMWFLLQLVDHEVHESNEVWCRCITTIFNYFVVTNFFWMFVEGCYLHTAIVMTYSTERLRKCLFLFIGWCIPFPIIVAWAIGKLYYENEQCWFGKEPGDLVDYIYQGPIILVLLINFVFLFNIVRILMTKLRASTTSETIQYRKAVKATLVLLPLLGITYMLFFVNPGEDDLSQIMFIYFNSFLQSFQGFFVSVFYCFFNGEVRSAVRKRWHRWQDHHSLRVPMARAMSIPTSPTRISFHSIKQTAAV
T1 sequence (P24387 whole entry): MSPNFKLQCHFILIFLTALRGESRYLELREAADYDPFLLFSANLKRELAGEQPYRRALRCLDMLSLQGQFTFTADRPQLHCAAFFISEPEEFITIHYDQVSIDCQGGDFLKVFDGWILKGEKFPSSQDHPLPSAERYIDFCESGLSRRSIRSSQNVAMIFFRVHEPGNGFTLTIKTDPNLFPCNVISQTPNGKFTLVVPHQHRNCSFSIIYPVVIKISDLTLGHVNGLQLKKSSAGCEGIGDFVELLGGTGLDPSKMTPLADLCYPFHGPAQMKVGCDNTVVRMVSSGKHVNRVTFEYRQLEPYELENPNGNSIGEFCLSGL
Briefly: Dose Response confirmation of uHTS hits for small molecule antagonists of the CRF-binding protein and CRF-R2 receptor complex. The format is functional. The settings on record: read-out: IC50_Mean.

Test [4] concerns the target T1, Corticotropin-releasing factor receptor 2/Corticotropin-releasing factor-binding protein. Briefly: activators of CRF receptor 2 with binding protein – uHTS hits, confirmation (AID 602473). To be noted: read-out: EC50_Mean. The format is functional.
In the next test the target is Large T antigen (Simian virus 40, UniProt P03070). Type of test: functional, Betapolyomavirus macacae.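 Also: Confirmatory-stage PubChem screen for compounds that inhibit SV40 T antigen.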
In test [5] the target is T2, Polyadenylate-binding protein 1 (Homo sapiens, UniProt P11940). Briefly: MLLE domain peptide-binding blockers, IC50 – biochemical, fluorescence polarization, FITC-PAM2 peptide, dose response (AID 602259). The format is functional. To be noted: read-out: IC50_Mean. For orientation: In fluorescence polarisation assays a small probe gives low polarisation when free and higher when bound to something large.

The target in test [6] is T2, Polyadenylate-binding protein 1. Briefly: MLLE binding blockers, Cy5 peptide tracer – biochemical, fluorescence polarization, Cy5-PAM2 peptide, secondary, miRNA deadenylation inhibitor project, dose response (AID 602260). Type of test: functional. The settings on record: read-out: IC50_Mean.
For a further test, the system named is INS1. Briefly: INS-1E survival protection against cytokine death – cell-based, luminescence, retest, dose response (AID 449756).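 Also: cell death triggered by IL-1 beta plus TNF-alpha plus IFN-gamma mixture; protective hits raise ATP signal compared with cytokine alone wells.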 Type of test: functional. To be noted: Rattus norvegicus.
A further test has as its target Genome polyprotein (dengue virus type 2, UniProt P29990). The test is described as follows: flavivirus cap methylation enzyme inhibition – biochemical, confirmation dose response, primary screen (AID 588689). The format is functional.
The target in test [7] is T3, Rac GTPase-activating protein 1 (Homo sapiens, UniProt Q9H0H5).
T3 sequence (Q9H0H5 whole entry): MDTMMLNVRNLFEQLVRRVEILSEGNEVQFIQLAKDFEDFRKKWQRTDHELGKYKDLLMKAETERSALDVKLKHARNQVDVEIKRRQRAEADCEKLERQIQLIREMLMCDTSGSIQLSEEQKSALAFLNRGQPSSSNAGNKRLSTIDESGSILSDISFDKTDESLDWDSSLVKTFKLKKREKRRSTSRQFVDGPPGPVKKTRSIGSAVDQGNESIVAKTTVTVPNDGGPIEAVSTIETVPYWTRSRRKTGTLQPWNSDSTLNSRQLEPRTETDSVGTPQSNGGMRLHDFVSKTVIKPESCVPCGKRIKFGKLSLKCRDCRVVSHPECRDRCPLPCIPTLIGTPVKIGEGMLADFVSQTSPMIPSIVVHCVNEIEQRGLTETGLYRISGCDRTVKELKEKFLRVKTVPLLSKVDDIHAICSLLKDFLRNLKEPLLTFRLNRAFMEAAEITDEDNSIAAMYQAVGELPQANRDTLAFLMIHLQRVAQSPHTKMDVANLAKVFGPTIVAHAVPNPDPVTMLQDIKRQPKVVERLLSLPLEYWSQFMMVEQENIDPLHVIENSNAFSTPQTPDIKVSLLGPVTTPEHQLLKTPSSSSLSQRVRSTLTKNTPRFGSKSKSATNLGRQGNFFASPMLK
The test is described as follows: blockers of MgcRacGAP-driven Rac1 GTP hydrolysis – biochemical, ADP Hunter fluorescence, primary and confirmatory, confirmation (AID 624330). The format is functional.

The nature of test [8]: NIH-3T3 fibroblast cytotoxicity, dose response, cytotoxicity control, cell-based, fluorescence, Alamar Blue, secondary assay (AID 2327).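 Also: NIH-3T3 mouse fibroblasts cultured with fluconazole at 8 µg/mL.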 The format is functional.
Test [9] in a line: NIH3T3 cell viability loss – ATP luminescence, mouse fibroblasts, counter-screen, dose response (AID 2010).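 Also: cells exposed to compound for about 90 hours before reading.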 The format is functional, cell-based. A general note: Counterscreens check selectivity or assay interference.
A short description of test [10]: Luminescence Cell-Based Dose Response HTS to Identify Inhibitors of 5'UTR Stem-Loop Driven Prion Protein mRNA Translation in H4 Neuroglioblastoma Cells. [Related pubchem assays: 1827 (Project Summary), 1813 (Primary HTS)]. The format is functional.
Test [11] is described as follows: Trypanosoma cruzi growth suppression in host cells – NIH3T3 host cells, beta-gal luminescence, confirmation (AID 2044).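 Also: intracellular parasites grown in NIH/3T3 mouse fibroblasts as host cells; luminescent beta-galactosidase reporter signal from transgenic T. cruzi replicating inside host cells; inhibitors lower the luminescence signal.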 Type of test: functional, cell-based.
Test [12] is described as follows: luciferase reporter signal suppression in cells – H4 neuroglioma cells, luminescence, dose response (AID 1990). Type of test: functional, cell-based. (In general: In a reporter assay the amount or activity of a reporter protein is the signal.)
Test [13] is described as follows: alpha-synuclein stem-loop luciferase translation blockers – H4 neuroglioma cells, luminescence, confirmation (AID 1988). The format is functional, cell-based.
Test [14] in a line: fluconazole-exposed Candida albicans growth modulators – fluorescence, retest, confirmation (AID 2467). The format is functional, cell-based.
Test [15] in a line: viability of uninfected HEp-2 cells – cell-based, HTS, cytotoxicity control for RSV inhibitor project, dose response (AID 2410). Type of test: functional. To be noted: human respiratory syncytial virus.

Chain of Large T antigen (P03070 whole entry, the tested form may be a part): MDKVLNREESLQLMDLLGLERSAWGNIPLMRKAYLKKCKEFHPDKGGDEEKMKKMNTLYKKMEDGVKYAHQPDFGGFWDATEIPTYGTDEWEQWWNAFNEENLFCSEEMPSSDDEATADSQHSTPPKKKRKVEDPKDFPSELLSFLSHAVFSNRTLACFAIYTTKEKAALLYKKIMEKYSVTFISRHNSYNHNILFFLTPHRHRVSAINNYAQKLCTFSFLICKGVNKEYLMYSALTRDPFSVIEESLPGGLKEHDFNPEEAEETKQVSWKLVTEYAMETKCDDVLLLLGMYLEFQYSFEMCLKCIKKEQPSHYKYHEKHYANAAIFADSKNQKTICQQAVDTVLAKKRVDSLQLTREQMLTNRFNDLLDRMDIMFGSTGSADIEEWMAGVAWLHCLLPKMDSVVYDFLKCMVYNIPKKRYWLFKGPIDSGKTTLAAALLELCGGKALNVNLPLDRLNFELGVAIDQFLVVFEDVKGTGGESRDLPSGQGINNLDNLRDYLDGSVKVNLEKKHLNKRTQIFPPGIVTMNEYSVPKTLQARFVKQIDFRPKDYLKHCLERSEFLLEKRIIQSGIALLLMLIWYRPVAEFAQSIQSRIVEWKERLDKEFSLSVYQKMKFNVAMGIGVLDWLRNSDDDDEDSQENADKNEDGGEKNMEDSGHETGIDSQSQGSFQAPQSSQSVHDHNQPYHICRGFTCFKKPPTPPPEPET
T2 sequence (P11940 whole entry, the tested form may be a part): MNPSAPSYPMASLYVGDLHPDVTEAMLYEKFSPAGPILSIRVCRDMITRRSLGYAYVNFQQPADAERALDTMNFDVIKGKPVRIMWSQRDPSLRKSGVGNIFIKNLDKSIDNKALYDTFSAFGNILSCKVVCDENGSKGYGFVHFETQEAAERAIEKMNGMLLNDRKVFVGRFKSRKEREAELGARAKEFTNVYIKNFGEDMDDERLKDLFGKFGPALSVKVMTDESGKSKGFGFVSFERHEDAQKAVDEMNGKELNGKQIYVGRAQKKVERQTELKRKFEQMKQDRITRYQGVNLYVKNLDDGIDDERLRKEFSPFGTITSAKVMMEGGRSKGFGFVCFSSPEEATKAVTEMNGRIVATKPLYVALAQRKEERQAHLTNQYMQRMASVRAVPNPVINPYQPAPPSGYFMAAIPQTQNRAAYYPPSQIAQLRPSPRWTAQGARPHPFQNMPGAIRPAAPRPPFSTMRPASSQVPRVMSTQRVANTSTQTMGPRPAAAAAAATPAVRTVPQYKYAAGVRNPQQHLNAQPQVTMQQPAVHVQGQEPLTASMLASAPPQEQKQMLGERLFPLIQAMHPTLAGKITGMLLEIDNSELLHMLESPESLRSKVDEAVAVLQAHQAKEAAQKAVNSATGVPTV
Chain of Genome polyprotein (P29990 2492-3391 limits assumed): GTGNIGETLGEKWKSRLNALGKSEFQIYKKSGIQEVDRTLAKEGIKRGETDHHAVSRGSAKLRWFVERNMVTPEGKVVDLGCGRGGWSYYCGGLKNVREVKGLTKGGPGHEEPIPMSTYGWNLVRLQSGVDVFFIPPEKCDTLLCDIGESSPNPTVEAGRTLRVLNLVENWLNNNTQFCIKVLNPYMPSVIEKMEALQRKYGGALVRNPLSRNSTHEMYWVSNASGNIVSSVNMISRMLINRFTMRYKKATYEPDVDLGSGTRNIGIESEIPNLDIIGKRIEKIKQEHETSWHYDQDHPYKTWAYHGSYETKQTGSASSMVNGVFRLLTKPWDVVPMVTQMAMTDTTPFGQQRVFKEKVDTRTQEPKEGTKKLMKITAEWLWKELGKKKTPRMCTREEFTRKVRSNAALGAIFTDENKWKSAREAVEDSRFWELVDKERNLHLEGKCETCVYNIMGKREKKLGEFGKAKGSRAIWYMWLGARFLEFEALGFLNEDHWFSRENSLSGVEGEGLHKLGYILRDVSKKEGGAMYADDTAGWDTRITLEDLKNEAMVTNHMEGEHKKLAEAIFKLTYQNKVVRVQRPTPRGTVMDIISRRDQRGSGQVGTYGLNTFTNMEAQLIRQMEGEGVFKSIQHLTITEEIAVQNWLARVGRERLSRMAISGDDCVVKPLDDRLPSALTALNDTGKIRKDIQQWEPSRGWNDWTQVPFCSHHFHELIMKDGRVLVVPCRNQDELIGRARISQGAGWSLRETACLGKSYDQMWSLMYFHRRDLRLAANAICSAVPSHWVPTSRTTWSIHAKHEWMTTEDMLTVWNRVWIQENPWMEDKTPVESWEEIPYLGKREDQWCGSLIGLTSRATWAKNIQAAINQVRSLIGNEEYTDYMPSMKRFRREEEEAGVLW

As for `Cn1c2c(c(=O)[nH]c1=O)C(c1ccc(O)cc1)C1=C(O)c3ccccc3C1=N2` (configuration not stated), the EC50 (in the test on H4; in test [1]; in [2]) was > 120 µM (not active) each time.

On to `c1ccc(NC2=Nc3ccccc3CS2)cc1`, for which the results for the EC50 in test [1] and in test [2] were 0.409 µM (active) and 0.465 µM (active), respectively.

Consider `CCc1ccc(NC(=O)Cn2nc(C(=O)O)c3ccccc3c2=O)cc1`, for which the IC50 in [3] was > 47.1 µM (inactive). Further, the EC50 in test [4] is > 53 µM (inactive).

On to `CC(C)(C)c1ccc(C(=O)NNC(=O)C2CCCCC2)cc1`, for which the EC50 in the test on H4 was 59.3 µM (active); in test [1] it was 30.7 µM (active); in test [2] it was 19.6 µM (active).

For the compound `CCN(CC)c1ccc(NC(=O)c2cccc(C)c2OC)c(C)c1`, the IC50 on Large T antigen was 32 µM (active).

For `COC(=O)CC(NC(=S)NC(=O)c1ccccc1)c1ccc(Br)cc1` (configuration not stated), the IC50 in test [5] and in test [6] was > 66 µM (inactive) in each case.

On to `CC(C)(C)C(=O)Nc1ccc(C(=O)N/N=C/c2ccccc2OC(=O)c2ccc(Cl)cc2)cc1`, for which the AC50 in the test on INS1 is 2.83 µM (active).

On to `CCc1nc2cccnc2n1-c1ccc(C(=O)O)cc1`, for which the IC50 is 49.5 µM (inactive) in [5] and > 66 µM (inactive) in test [6].

With `Cc1nn(C)c(C)c1NC(=O)c1cc2nc(-c3ccco3)cc(C(F)(F)F)n2n1`, in test [3], the IC50 was > 47.1 µM (inactive). Also, the EC50 in test [4] is > 53 µM (inactive).

For `COc1ccc(CN2CCN(C(=O)c3cccs3)CC2)c(OC)c1OC`, in [3], the IC50 was > 47.1 µM (inactive). In addition, in [4], the EC50 is > 53 µM (inactive).

`Clc1ccc(-c2csc(N3CCOCC3)n2)cc1`: the IC50 in test [3] was > 47.1 µM (inactive). For the same compound, the EC50 in [4] is > 53 µM (inactive).

As to `Cc1ccc(NC(=O)COC(=O)CN2C(=O)NC3(CCCC3)C2=O)cc1S(=O)(=O)N(C)C`, the IC50 in [3] was > 47.1 µM (inactive). Also, in [4], the EC50 is > 53 µM (inactive).

For the compound `CSc1nc2ncc(-c3ccsc3)c(N)n2n1`, the EC50 with H4 is 27.2 µM (active); in [1] it was 19.5 µM (active); in [2] it was > 120 µM (not active).

Consider `Cc1cc(Cl)ccc1N=C(S)Nc1cccnc1`, for which the IC50 in test [5] and in test [6] was > 66 µM (inactive) throughout.

In the case of `O=C(NC1=NCCS1)c1cccs1`, the IC50 in test [5] and in [6] was > 66 µM (inactive) in each case.

Take `COc1ccc(NC(=O)CN(C)C(=O)/C=C/c2ccc(S(=O)(=O)N3CCCCCC3)cc2)cc1`: the half-maximal activity concentration (AC50) with INS1 was 24.3 µM (active).

Regarding `Cc1ccc(C(C2=C(O)CC(C)(C)CC2=O)C2C(=O)CC(C)(C)CC2=O)s1` (configuration not stated), the figures for the IC50 (at Genome polyprotein; in [7]) were 29.4 µM (active) and 62.9 µM (active), respectively.

In the case of `COc1ccc(Cl)cc1N=C(S)Nc1ccccc1F`, the IC50 in test [5] and in test [6] was > 66 µM (inactive) each time.

Consider `CC1(C)Cc2ccccc2-c2c1c(=O)n(Cc1ccccc1)c1nnnn21`, for which the IC50 in test [3] was > 47.1 µM (inactive). In addition, the EC50 in [4] is > 53 µM (inactive).

Consider `O=[N+]([O-])c1ccc(N2CCN(c3ccc(O)cc3)CC2)cn1`, for which the IC50 at Large T antigen was 26.7 µM (active).

On to `CC(C)[C@H]1C(=O)O[C@H](C(C)C)C(=O)N(C)[C@@H](C(C)C)C(=O)O[C@H](C(C)C)C(=O)N(C)[C@@H](C(C)C)C(=O)O[C@H](C(C)C)C(=O)N1C` [ENNIATIN B], for which the EC50 was 3.22 µM (inconclusive) in [8]; 3.66 µM (active) in test [9]; > 120 µM (not active) in test [10]; 0.853 µM (active) in test [11]; 5.62 µM (active) in [12]; > 120 µM (not active) in [13]. In addition, the EC50 in test [14] was 0.374 µM (active). Moreover, the AC50 in the test with INS1 is 2.99 µM (active).

On to `O=[N+]([O-])c1ccc(C(O)CSC(=S)N2CCCCC2)cc1` (configuration not stated), for which the EC50 in the test on H4 is 32.7 µM (active); in test [1], 56.4 µM (active); in test [2], 7.46 µM (active).

Take `Cc1ccc(CNc2ccc(N3CCOCC3)cc2)cc1`: at Large T antigen, the IC50 is 5.62 µM (active).

In the case of `Cc1c(NC(=O)COC(=O)COc2ccc(Nc3ccccc3)cc2)c(=O)n(-c2ccccc2)n1C`, the IC50 on Large T antigen was 35.3 µM (active).

For the compound `CC(c1nc(O)c2ccccc2n1)N(C)c1ccc2ccccc2c1` (configuration not stated), the IC50 in test [5] and in test [6] was > 66 µM (inactive) throughout.

As for `C1CCCCC1.OCCN1CCN(C2Cc3cc(Cl)ccc3Sc3ccc(Cl)cc32)CC1` (configuration not stated), in test [15], the CC50 was 13.8 µM (active). Also, the AC50 in the test on INS1 is 13 µM (active).

As to `COc1cc(/C=N/NC(=O)c2ccccc2O)ccc1OC(=O)CC1SC(=O)NC1=O` (configuration not stated), on Large T antigen, the IC50 was 35.1 µM (active).

`Oc1ccc(N2CCN(C(c3ccncc3)c3nnnn3C3CCCC3)CC2)cc1` (configuration not stated): on Large T antigen, the IC50 was 5.61 µM (active).

Take `CCOc1cccc(-c2csc(C3COc4ccccc4O3)n2)c1` (configuration not stated): the EC50 with H4 is 37.5 µM (active); in [2] it was 13.4 µM (active).

On to `CN1/C(=C\C(=O)c2cccc([N+](=O)[O-])c2)Sc2ccccc21`, for which the IC50 in test [5] and in test [6] was > 66 µM (inactive) throughout.

Take `COc1ccc(NC(=O)NCCCN2CCc3ccccc3C2)cc1`: the IC50 in [3] was > 47.1 µM (inactive). Also, the EC50 in test [4] was > 53 µM (inactive).

For the compound `O=C1c2ccccc2C2C3=C(O)CC(c4ccco4)CC3=Nc3ccccc3N12` (configuration not stated), the EC50 in the test on H4 is > 120 µM (not active); in test [1], 41 µM (active); in test [2] it was > 120 µM (not active).
